Data: patent US4260806A, “Carbocyclic thromboxane A2 analogues” (priority 1979, dated 1981)
Like-named read-outs stand apart in the source and are kept apart here.

Assays:
[1] = tested on: blood platelet aggregation; settings: literature; cited from earlier work
[2] = tested on: New Zealand white rabbits; assay: effect of CTA2 on intact anesthetized rabbits; type: in vivo, rabbit
Protocol: To study the effect of CTA2 on intact animals, New Zealand white rabbits 2-3.5 kg were anesthetized with pentobarbital sodium (25 mg/kg) and placed in the supine position. The right femoral and external jugular veins and the left common carotid artery were cannulated with polyethylene catheters. Standard limb needle electrodes were placed subcutaneously for recording the electrocardiogram (ECG). The trachea was cannulated with a glass tube connected to a pressure transducer for the recording of airway pressure. Mean arterial blood pressure (MABP), central venous pressure (CVP), airway pressure, and lead III of the ECG were continuously recorded on a Grass Model 7 oscillographic recorder. Sodium arachidonate (95% pure, Sigma Chamical) at 2.0 mg/kg or CTA2 (125 μg/kg) were injected into the […], and the rabbit observed until death. Two ml blood samples were drawn into 25 mM EDTA just prior to injection of drug and just prior to death for radio-immunoassay of thromboxane B2.

[3] = tested on: human platelet-rich plasma; assay: platelet aggregation in citrated human platelet-rich plasma (aggregometer); type: cell-based
Protocol: Platelet aggregation was studied in an aggregometer (Chronolog Corp., Phila., PA) using 0.5 ml citrated human platelet-rich plasma at 35° C. One minute after addition of analogue (up to 2 μl of a 25 mM solution in ethanol) aggregation was initiated by addition of sodium arachidonate (0.3-0.5 mM), ADP (2 μM) collagen (1 μg/ml), epinephrine (50 μM), 9,11-azo-PGH2 (0.1-0.6 μM). The analogues were also tested for their effects on the inhibition of ADP-induced aggregation by 2 nM prostacyclin or 20 nM prostaglandin D2.

[4] = tested on: cat coronary arteries; assay: constriction of isolated perfused cat coronary arteries (perfusion pressure at constant flow); type: cell-based
Protocol: Thromboxane A2 analogues (up to 4 μl of a 2.5 mM solution in ethanol) were tested for their effects on cat coronary arteries continuously perfused with 10 ml Krebs-Henseleit solution as described below.
Cats of either sex (2.5-3.5 kg) were anesthetized with sodium pentobarbital (30 mg/kg) given intravenously. […] A 20-gauge stainless steel cannula was inserted into the right coronary artery via the coronary ostium. Distal to the cannula, approximately 1 cm of coronary artery was dissected free of surrounding tissue. The section of right coronary artery with the cannula in place was excised from the heart and immediately transferred to a constant flow perfusion apparatus.
The perfusion apparatus consists of a reservoir containing 20 ml of warm (37° C.) oxygenated (95% O2 +5% CO2) K-H solution which bathes the coronary artery and serves as recirculating perfusate. An increase in perfusion pressure signifies […]. Following an initial 1 hr. equilibrium period, vascular responsiveness was established by adding 25 mM KCl. […] Fresh K-H dilutions of stock thromboxane analog concentrations were added to the perfusate reservoir in 0.1-0.2 ml volumes. […] Constriction of the arteries was induced by addition of 15 or 30 nM 9,11-azo-prostaglandinendoperoxide (azo-PGH2), or 1 μM 9,11-methanoepoxy-PGH2.

[5] = tested on: formation of thromboxane B2; assay: formation of thromboxane B2
[6] = tested on: coronary artery; settings: normal and high concentrations; literature; cited from earlier work
[7] = cited from earlier work

## CCCCCC/C=C/C1C2CC(ON2)C1C/C=C\CCCC(=O)O (stereo not drawn) [15-deoxy-9,11-epoxyimino-PGH2]
[1]
  effect on platelet aggregation: inhibits platelet aggregation

## CCCCCC/C=C/C1C2CC(N=N2)C1C/C=C\CCCC(=O)O (stereo not drawn) [15-deoxy-9, 11-azo-PGH2]
[1]
  effect on platelet aggregation: inhibits platelet aggregation

## CCCCC[C@H](O)/C=C/C1CC2CC(C2)C1C/C=C\CCCC(=O)O (stereo partly drawn) [CTA2, Carbocyclic Thromboxane A2, free acid]
[2]; anesthetized rabbit, 125 μg/kg intravenously, typical response
  time of death after injection: nine
[2]; severe myocardial ischemia without coronary thrombosis
  sudden cardiac death in rabbits: induces sudden cardiac death
[3]
  inhibition of arachidonic acid induced platelet aggregation: potent inhibitor
  intrinsic ability to aggregate platelets: no intrinsic ability to agreggate plateletes
[3]; 1-2 μM
  effect on arachidonic acid induced aggregation: delayed the onset of platelet aggregation without actually inhibiting the magnitude of the overall response
[3]; arachidonic acid, 9-11-azo PGH2, 9,11-methanoepoxy PGH2 and 9,11-epoxymethano PGH2
  inhibition of platelet aggregation to a variety of prostanoids: very potent inhibitor
[3]; at 4 to 5 μM
  prevention of induced platelet aggregation: completely prevented
[3]; lower concentrations, 1 to 4 μM
  prevention of induced platelet aggregation: only partially protective
[3]; up to concentrations of 100 μM
  induction of platelet aggregation in vitro: failed to induce platelet aggregation
[4]; CTA2 vs azo-PGH2 >9,11-methanoepoxy-PGH2 >9,11 epoxymethano-PGH2 >>PGH2 >>Thromboxane B2
  rank order of constrictor potency: more potent a constrictor
[4]; cat coronary arteries
  vasoconstricting potency compared with natural thromboxane A2: potencies comparable to those of the natural thromboxane A2
[4]; concentrations up to 10^-7 M
  antagonism of the coronary constrictor effects of 9,11-methanoepoxy PGH2: did not antagonize
[4]; isolated perfused cat coronary arteries
  constriction (increased perfusion pressure at constant flow): dose-dependent constriction
[4]; relative to 9,11-azo PGH2
  potency relative to 9,11-azo PGH2 (EC20): 4 times
[4]; relative to 9,11-methanoepoxy PGH2 and 9,11-epoxymethano PGH2
  potency relative to the other two PGH2 derivatives (EC20): 5-6 times
[4]; relative to TB2
  potency relative to TB2, by concentration giving a 20 mm Hg increase in coronary perfusion pressure (EC20): 10,000 times
[5]
  inhibition of the formation of thromboxane B2: selectively inhibits

## CCCCC[C@@H](O)/C=C/[C@H]1C[C@H]2C[C@@H]([C@@H]1C/C=C\CCCC(=O)O)C2(C)C [PTA2, pinane thromboxane A2, reference compound]
[4]
  antagonism of the coronary constrictor effects of CTA2: almost completely antagonized
[6]
  effect on coronary artery contraction: inhibits coronary artery contraction

## CCCCC[C@H](O)/C=C/[C@H]1O[C@H]2C[C@H](O2)[C@@H]1C/C=C\CCCC(=O)O [TA2, thromboxane A2]
[7]; pH 7.4 and 37° C.
  half-life: 30 s

## CCCCC[C@H](O)/C=C/[C@@H]1[C@H]2C/C(=C/CCCC(=O)O)O[C@H]2C[C@H]1O [prostacyclin, 6,9 α-oxido-11α, 15 α-dihydroxyprosta (Z), 5, E (13)-dienoic acid]
[1]
  effect on platelet aggregation: most potent inhibitor of blood platelet aggregation
[7]; physiological conditions
  half-life: about 2 minutes
